Assay results from patent US11103509B2 (University of Kentucky Research Foundation, priority 2018, dated 2021).
Like-named read-outs stand apart in the source and are kept apart here.

Experiments:
human mPGES-1 = biological target: T1, human mPGES-1 (Homo sapiens, UniProt O14684); assay: in vitro inhibitory activity against human mPGES-1 (PGE2 enzyme immunoassay); assay type: biochemical; settings: for inhibition at 10 µM: read-out: Inhibition (%) at 10 μM
T1 construct: made in house
T1 sequence (O14684 1-152): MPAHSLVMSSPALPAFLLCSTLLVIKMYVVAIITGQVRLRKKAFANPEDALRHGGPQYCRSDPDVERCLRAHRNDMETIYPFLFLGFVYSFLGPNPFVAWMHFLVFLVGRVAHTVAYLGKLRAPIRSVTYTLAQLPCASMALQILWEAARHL
Protocol: The above computational predictions were followed by in vitro activity assays for their actual inhibitory activity against human mPGES-1 using an ELISA assay previously-described.^16-17, 19 Specifically, a total of 18 FDA-approved drugs were assayed for their inhibitory activity against human mPGES-1.
The protocol for the protein preparation and in vitro activity assays were the same as described previously.^69-72 The enzyme activity assays were performed on ice in 1.5 ml microfuge tubes by using the expressed human mPGES-1. The reaction mixture contained: 0.2 M Na2HPO4/NaH2PO4, pH 7.2, 10 μL; 0.1 M GSH, 2.5 μL; diluted microsomal enzyme (80 μg/mL), 1 μL; PGH2 (0.31 mM in DMF), 5 μL; 1 μL inhibitor; and H2O in a final reaction volume of 100 μL. PGH2 was stored in dry ice and used to initiate the reaction. Compounds were incubated with the enzyme for 15 min at room temperature before the addition of cold PGH2 (1 μM final) to initiate the enzyme reaction. After 30 s, 10 μL of SnCl2 (40 mg/mL) in ethanol was added to stop the reaction. The non-enzymatic conversion of PGH2 to PGE2 was performed in the same buffer devoid of enzyme. The reaction mixture was placed on ice until PGE2 production was determined by the PGE2 enzyme immunoassay as described earlier. IC50 values of the inhibitors were calculated by using the GraphPad Prism 6.0.

pain in cancer patients [1] = assay: clinical data mining: pain complaints in afatinib Phase III clinical trial NCT00656136; assay type: in vivo, human
Protocol: To address this question, data from phase III clinical trial (NCT00656136) was also analyzed for drug afatinib, another EGFR and HER2 dual inhibitor approved by the FDA in 2013.

pain in cancer patients [2] = settings: cited from earlier work
[3] = 10 μM, single-concentration screening
[4] = NCT00656136, may include multiple types of pain from each patient
[5] = NCT00656136, with drug total 390

Compound	IC50 (human mPGES-1)	inhibition at 10 µM (human mPGES-1; [3])	other results
CCCCC[C@H](O)/C=C/[C@H]1[C@H](O)CC(=O)[C@@H]1CCCCCCC(=O)O [Alprostadil]	–	11%	–
C=C1/C(=C\C=C2/CCC[C@]3(C)[C@@H]([C@H](C)/C=C/[C@@H](O)C4CC4)CC[C@@H]23)C[C@@H](O)C[C@@H]1O [Calcipotriene]	3 ± 1.1 µM	68%	–
CN(C)C/C=C/C(=O)Nc1cc2c(Nc3ccc(F)c(Cl)c3)ncnc2cc1O[C@H]1CCOC1 [afatinib]	–	–	analgesic effect (in words) (pain in cancer patients [1]; NCT00656136, compared to placebo): no analgesic effects at all; # of patients complaining pain/# of patients given afatinib, Counts: Total pain occurrence (pain in cancer patients [1]; [4]): 104/390; patients complaining pain, Percentage(%): Total pain occurrence (pain in cancer patients [1]; [4]): 26.67%; Back Pain, With drug pains (pain in cancer patients [2]; [5]): 29; Headache, With drug pains (pain in cancer patients [2]; [5]): 21; Pain In Extremity, With drug pains (pain in cancer patients [2]; [5]): 27; Pain-throat/pharynx/larynx, With drug pains (pain in cancer patients [2]; [5]): 27; # of patients complaining pain/# of patients given afatinib, Counts: Back Pain (pain in cancer patients [2]; NCT00656136): 29/390; # of patients complaining pain/# of patients given afatinib, Counts: Headache (pain in cancer patients [2]; NCT00656136): 21/390; # of patients complaining pain/# of patients given afatinib, Counts: Pain - chest/thorax (pain in cancer patients [2]; NCT00656136): 27/390; # of patients complaining pain/# of patients given afatinib, Counts: Pain in Extremity (pain in cancer patients [2]; NCT00656136): 27/390; patients complaining pain, Percentage(%): Back Pain (pain in cancer patients [2]; NCT00656136): 7.43%; patients complaining pain, Percentage(%): Headache (pain in cancer patients [2]; NCT00656136): 5.38%; patients complaining pain, Percentage(%): Pain - chest/thorax (pain in cancer patients [2]; NCT00656136): 6.92%; patients complaining pain, Percentage(%): Pain in Extremity (pain in cancer patients [2]; NCT00656136): 6.92%
CS(=O)(=O)CCNCc1ccc(-c2ccc3ncnc(Nc4ccc(OCc5cccc(F)c5)c(Cl)c4)c3c2)o1 [Lapatinib Ditosylate]	–	99%	–
C[C@]12C=CC(=O)C=C1CC[C@@H]1[C@@H]2[C@@H](O)C[C@@]2(C)[C@H]1CC[C@]2(O)C(=O)CO [Prednisolone]	–	44%	–
C[C@]12CC[C@@H]3c4ccc(OC(=O)N(CCCl)CCCl)cc4CC[C@H]3[C@@H]1CC[C@@H]2OP(=O)(O)O [Estramustine Phosphate]	–	–	inhibition at 10 µM (human mPGES-1): 36%
COc1cc2nc(N3CCN(C(=O)C4COc5ccccc5O4)CC3)nc(N)c2cc1OC (centres unmarked) [Doxazosin]	–	21%	–
COCC1=C(C(=O)OC(C)OC(=O)OC(C)C)N2C(=O)[C@@H](NC(=O)/C(=N\OC)c3csc(N)n3)[C@H]2SC1 (some centres unmarked) [Cefpodoxime Proxetil]	29.7 ± 6.3 µM	47%	–
COc1cc(C)c(/C=C/C(C)=C/C=C/C(C)=C/C(=O)O)c(C)c1C [Acitretin]	3.5 ± 1.6 µM	83%	–
Cc1ccccc1C(=O)Nc1ccc(C(=O)N2CCCC(O)c3cc(Cl)ccc32)c(C)c1 (centres unmarked) [Tolvaptan]	10.2 ± 2.5 µM	52%	–
CC(C)(C)C(=O)OCOP(=O)(COCCn1cnc2c(N)ncnc21)OCOC(=O)C(C)(C)C [Adefovir Dipivoxil]	–	19%	–
C[C@H]1[C@H](NC(=O)/C(=N\OC(C)(C)C(=O)O)c2csc(N)n2)C(=O)N1S(=O)(=O)O [Aztreonam]	11.4 ± 1.1 µM	53%	–
CC1(C)S[C@@H]2[C@H](NC(=O)COc3ccccc3)C(=O)N2[C@H]1C(=O)[O-].[K+] [Penicillin V Potassium]	–	–	Inhibition (%) at 10 μM (human mPGES-1; [3]): 36%

Now from value to molecule, other results behind:

IC50 (human mPGES-1)	inhibition at 10 µM (human mPGES-1; [3])	Compound	other results
7.2 ± 2.4 µM	57%	CO/N=C(\C(=O)N[C@@H]1C(=O)N2C(C(=O)O)=C(CSc3nc(=O)c(=O)[nH]n3C)CS[C@H]12)c1csc(N)n1 [Ceftriaxone]	–
–	36%	OCCN(CCO)c1nc(N2CCCCC2)c2nc(N(CCO)CCO)nc(N3CCCCC3)c2n1 [Dipyridamole]	–
–	4%	CCCCC[C@H](O)/C=C/[C@H]1[C@H](O)CC(=O)[C@@H]1C/C=C\CCCC(=O)O [Dinoprostone]	–
13.5 ± 4 µM	–	CO[C@@]1(NC(=O)C2SC(=C(C(N)=O)C(=O)[O-])S2)C(=O)N2C(C(=O)[O-])=C(CSc3nnnn3C)CS[C@@H]21.[Na+].[Na+] (some centres unmarked) [Cefotetan Disodium]	Inhibition (%) at 10 μM (human mPGES-1; [3]): 44%
–	22%	COc1cc2nc(N(C)CCCNC(=O)C3CCCO3)nc(N)c2cc1OC (centres unmarked) [Alfuzosin]	–
9 ± 2.3 µM	54%	CCOC(=O)[C@H](CCc1ccccc1)N[C@@H](C)C(=O)N1[C@H](C(=O)O)C[C@H]2CCCC[C@@H]21 [Trandolapril]	–
